Reference: PubChem BioAssay AID248 (DTP/NCI, 2004)
Several values for one entry are separate records, joined by “and”; a condition that tells them apart may be missing. Equal entries are not always repeated. Inconclusive results and toxic doses are left out. Rule as the data show it: active = T/C of 150% or more; inactive = T/C below 125%.

Tested on: L1210 leukemia ip in BDF1 mice, survival T/C
Test: NCI In Vivo Anticancer Drug Screen. Data for tumor model L1210 Leukemia (intraperitoneal) in B6D2F1 (BDF1) mice
Details: endpoint: mean survival time, higher = longer survival
Procedure, shortened: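 Transplanted-tumor mice were given test agent; controls received vehicle only. Survival readings from the two groups were divided (treated over control).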

[1] = dose: 100.0 mg/kg/injection, schedule: Q01DX001 (ip), vehicle: saline
[2] = dose: 200.0 mg/kg/injection, schedule: Q01DX001 (ip), vehicle: saline
[3] = dose: 400.0 mg/kg/injection, schedule: Q01DX001 (ip), vehicle: saline
[4] = dose: 50.0 mg/kg/injection, schedule: Q01DX009 (ip), vehicle: saline with Tween-80
[5] = dose: 100.0 mg/kg/injection, schedule: Q01DX009 (ip), vehicle: saline with Tween-80
[6] = dose: 100.0 mg/kg/injection, schedule: Q01DX009 (ip), vehicle: Klucel (hydroxypropylcellulose) (HPC)
[7] = dose: 100.0 mg/kg/injection, schedule: Q04DX003 (ip), vehicle: Klucel (hydroxypropylcellulose) (HPC)
[8] = dose: 200.0 mg/kg/injection, schedule: Q01DX009 (ip), vehicle: Klucel (hydroxypropylcellulose) (HPC)
[9] = dose: 200.0 mg/kg/injection, schedule: Q04DX003 (ip), vehicle: Klucel (hydroxypropylcellulose) (HPC)
[10] = dose: 400.0 mg/kg/injection, schedule: Q04DX003 (ip), vehicle: Klucel (hydroxypropylcellulose) (HPC)
[11] = dose: 50.0 mg/kg/injection, schedule: Q04DX003 (ip), vehicle: saline with Tween-80
[12] = dose: 100.0 mg/kg/injection, schedule: Q04DX003 (ip), vehicle: saline with Tween-80
[13] = dose: 400.0 mg/kg/injection, schedule: Q01DX009 (ip), vehicle: Klucel (hydroxypropylcellulose) (HPC)
[14] = dose: 100.0 mg/kg/injection, schedule: Q01DX001 (ip), vehicle: carboxymethylcellulose (CMC)
[15] = dose: 200.0 mg/kg/injection, schedule: Q01DX001 (ip), vehicle: carboxymethylcellulose (CMC)
[16] = dose: 400.0 mg/kg/injection, schedule: Q01DX001 (ip), vehicle: carboxymethylcellulose (CMC)
[17] = dose: 200.0 mg/kg/injection, schedule: Q01DX009 (ip), vehicle: saline with Tween-80
[18] = dose: 200.0 mg/kg/injection, schedule: Q04DX003 (ip), vehicle: saline with Tween-80
[19] = dose: 100.0 mg/kg/injection, schedule: Q04DX003 (ip), vehicle: saline
[20] = dose: 200.0 mg/kg/injection, schedule: Q04DX003 (ip), vehicle: saline
[21] = dose: 400.0 mg/kg/injection, schedule: Q04DX003 (ip), vehicle: saline
[22] = dose: 100.0 mg/kg/injection, schedule: Q01DX001 (ip), vehicle: Klucel (hydroxypropylcellulose) (HPC)
[23] = dose: 200.0 mg/kg/injection, schedule: Q01DX001 (ip), vehicle: Klucel (hydroxypropylcellulose) (HPC)
[24] = dose: 400.0 mg/kg/injection, schedule: Q01DX001 (ip), vehicle: Klucel (hydroxypropylcellulose) (HPC)

Measured: T/C

O=C(OCC1OC(n2c(=O)[nH]c3scnc3c2=O)C(OC(=O)c2ccccc2)C1OC(=O)c1ccccc1)c1ccccc1 (stereo not given)
inactive: dose: 100.0 mg/kg/injection, schedule: Q01DX005 (ip), vehicle: saline 93 % of control | dose: 200.0 mg/kg/injection, schedule: Q01DX005 (ip), vehicle: saline 86 % of control

CCCCN(Cl)C(C)=O
inactive: [1] 96 % of control | [2] 100 % of control | [3] 96 % of control

COc1cc2c(cc1[N+](=O)[O-])C(=O)CCCC2
inactive: [4] 88 % of control | [5] 92 % of control

CCC(=O)Nc1cccc(C)c1C
inactive: [6] 93 % of control | [7] 102 % of control | [8] 106 % of control | [9] 102 % of control | [10] 95 % of control

O=C1/C(=C/c2ccc([N+](=O)[O-])cc2)SC(=S)N1C1OC(CO)C(O)C(O)C1O (stereo not given)
inactive: dose: 25.0 mg/kg/injection, schedule: Q01DX005 (ip), vehicle: water 95 % of control | dose: 50.0 mg/kg/injection, schedule: Q01DX005 (ip), vehicle: water 95 % of control | dose: 100.0 mg/kg/injection, schedule: Q01DX005 (ip), vehicle: water 93 % of control

O=C(NNc1ccccc1)Nc1ccccc1
inactive: [6] 107 % of control

CCCCCN(CCCCC)CCC(=O)c1ccc2cc(Br)c3ccccc3c2c1
inactive: dose: 13.3 mg/kg/injection, schedule: Q01DX Z (ip), vehicle: methylcellulose (MC) 91 % of control | dose: 20.0 mg/kg/injection, schedule: Q01DX Z (ip), vehicle: methylcellulose (MC) 92 % of control | dose: 30.0 mg/kg/injection, schedule: Q01DX Z (ip), vehicle: methylcellulose (MC) 92 % of control

CCO/C=N\c1c(C#N)c(CC#N)nn1-c1ccccc1
inactive: dose: 50.0 mg/kg/injection, schedule: Q01DX009 (ip), vehicle: Klucel (hydroxypropylcellulose) (HPC) 100 % of control | [6] 91 % of control | [8] 100 % of control

NC(=O)C1(c2ccccc2)CCN(Cc2ccccc2)CC1
inactive: dose: 25.0 mg/kg/injection, schedule: Q01DX009 (ip), vehicle: saline with Tween-80 100 % of control | [4] 98 % of control | [11] 95 % of control | [5] 94 % of control | [12] 92 % of control

O=C(Nc1ccccc1)N1CC12CCCCC2
inactive: [7] 104 % of control | [8] 98 % of control | [9] 110 % of control | [13] 95 % of control | [10] 100 % of control

CCOC(=O)CN1CC(C)(C)N(CC(=O)OCC)CC1(C)C
inactive: [14] 93 % of control | [15] 93 % of control | [16] 104 % of control

O=C(Nc1ccc(F)cc1)c1ccc(C(=O)Nc2ccc(F)cc2)cc1
inactive: [11] 91 % of control | [1] 100 % of control | [5] 100 % of control | [12] 96 % of control | [2] 96 % of control | [17] 108 % of control | [18] 96 % of control | [3] 102 % of control | dose: 400.0 mg/kg/injection, schedule: Q01DX009 (ip), vehicle: saline with Tween-80 94 % of control

COC(=O)c1nnc(C(=O)OC)nn1
inactive: dose: 100.0 mg/kg/injection, schedule: Q04DX002 (ip), vehicle: saline 96 % of control | dose: 200.0 mg/kg/injection, schedule: Q04DX002 (ip), vehicle: saline 115 % of control | dose: 400.0 mg/kg/injection, schedule: Q04DX002 (ip), vehicle: saline 96 % of control

[N-]=[N+]=NS(=O)(=O)CCc1ccccc1
inactive: [12] 96 % of control | [18] 110 % of control | dose: 400.0 mg/kg/injection, schedule: Q04DX003 (ip), vehicle: saline with Tween-80 98 % of control

CN(CCC#N)CCC#N
inactive: [19] 109 % of control | [20] 94 % of control | [21] 101 % of control

COc1cc2c3c(c1)/C(=N\NC(N)=O)CCN3CCC2
inactive: [7] 98 % of control | [9] 103 % of control | [10] 108 % of control

CCOC(=O)C1(C(=O)OCC)COC(C)(C)OC1
inactive: [19] 103 % of control | [20] 118 % of control | [21] 106 % of control

Oc1c(Br)cc(C(c2cc(Br)c(O)c(Br)c2)c2ccccn2)cc1Br
inactive: [7] 104 % of control | [9] 100 % of control | [10] 104 % of control

Nc1ccc(C(=O)CC(=O)c2cccc([N+](=O)[O-])c2)cc1
inactive: dose: 100.0 mg/kg/injection, schedule: Q04DX003 (ip), vehicle: carboxymethylcellulose (CMC) 97 % of control | dose: 200.0 mg/kg/injection, schedule: Q04DX003 (ip), vehicle: carboxymethylcellulose (CMC) 93 % of control | dose: 400.0 mg/kg/injection, schedule: Q04DX003 (ip), vehicle: carboxymethylcellulose (CMC) 90 % of control

COCCC(=O)COC
inactive: dose: 50.0 mg/kg/injection, schedule: Q01DX001 (ip), vehicle: saline 97 % of control | [1] 95 % of control | [2] 91 % of control | [3] 95 % of control

O=C(NCc1ccccc1)C(Cc1ccccc1)Cc1ccccc1
inactive: [14] 93 % of control | [15] 95 % of control | [16] 98 % of control

CCCCCCCC(C)NCCOC(=O)c1ccc(N)cc1 (stereo not given)
inactive: dose: 75.0 mg/kg/injection, schedule: Q01DX001 (ip), vehicle: other 117 % of control | dose: 150.0 mg/kg/injection, schedule: Q01DX001 (ip), vehicle: other 101 % of control

N=c1c2ncn(C3CCCC3)c2ncn1O
inactive: [4] 114 % of control | [11] 106 % of control | dose: 100.0 mg/kg/injection, schedule: Q01DX001 (ip), vehicle: saline with Tween-80 98 % of control | [5] 103 % of control | [12] 95 % of control | dose: 200.0 mg/kg/injection, schedule: Q01DX001 (ip), vehicle: saline with Tween-80 98 % of control | [17] 115 % of control | [18] 94 % of control

COc1ccc2c(c1OC)C(=O)OC2c1ccc(O)c(Br)c1 (stereo not given)
inactive: dose: 100.0 mg/kg/injection, schedule: Q01DX009 (ip), vehicle: alcohol 95 % of control | [19] 109 % of control | dose: 200.0 mg/kg/injection, schedule: Q01DX009 (ip), vehicle: alcohol 97 % of control | [20] 106 % of control | dose: 400.0 mg/kg/injection, schedule: Q01DX009 (ip), vehicle: alcohol 95 % of control | [21] 101 % of control

Cc1ccc(NC(=O)Nc2ccccc2C)c(C)c1
inactive: [6] 93 % of control | [7] 103 % of control | [8] 90 % of control | [9] 91 % of control | [10] 96 % of control

C=C(C)C1CCC(C)=CC1c1c(OC(=O)c2cc([N+](=O)[O-])cc([N+](=O)[O-])c2)cc(CCCCC)cc1OC(=O)c1cc([N+](=O)[O-])cc([N+](=O)[O-])c1 (stereo not given)
inactive: [22] 92 % of control | [23] 91 % of control | [24] 92 % of control

O=C(O)c1cccc(-c2ccccc2)c1
inactive: dose: 25.0 mg/kg/injection, schedule: Q04DX003 (ip), vehicle: saline with Tween-80 94 % of control | [11] 93 % of control | [12] 104 % of control | [19] 101 % of control | [18] 94 % of control and 100 % of control | [20] 106 % of control | [21] 108 % of control

COC1C(COC(C)=O)OC(n2cnc3c(=O)[nH]cnc32)C1OC(C)=O (stereo not given)
inactive: [1] 112 % of control | [2] 108 % of control | [3] 103 % of control

O=C(/C=C/c1ccccc1)N(Cc1ccccc1)c1ccccc1
inactive: [6] 97 % of control | [8] 101 % of control | [13] 103 % of control

COC(=O)C1CCC(NS(=O)(=O)c2ccc(C)cc2)CC1 (stereo not given)
inactive: [22] 98 % of control | [23] 98 % of control | [24] 101 % of control

CCOC(=O)C1c2cccc(O)c2C=CN1C(C)=O (stereo not given)
inactive: [19] 101 % of control | [20] 97 % of control | [21] 104 % of control
